We go through 6 compounds from patent US9783500B2, “2-aminoquinoline-based compounds for potent and selective neuronal nitric oxide synthase inhibition” (priority 2014, dated 2017).

This experiment has as its target rat nNOS (Rattus norvegicus (Rat), UniProt P29476). To be noted: Table 1; for Selectivity n/e / Selectivity n/i: ratio of Ki values; for Selectivity n/e: bovine eNOS/rat nNOS; for Selectivity n/i: murine iNOS/rat nNOS.

Where a name gives a salt, the structure may show the parent alone.

Regarding `Cl.Cl.Nc1ccc2ccc(CNCCc3cccc(F)c3)cc2n1` [5 (Ex. 8), 7-[(3-Fluorophenethylamino)methyl]quinolin-2-amine Dihydrochloride], the Selectivity n/e is on record as 6.2.

In the case of `Cl.Cl.Nc1ccc2ccc(CCNCc3cccc(F)c3)cc2n1` [6 (Ex. 12), 7-[2-(3-Fluorobenzylamino)ethyl]quinolin-2-amine Dihydrochloride], the Selectivity n/e was found to be 30 and the Selectivity n/i was found to be 97.

In the case of `Nc1ccc2ccc(CNCCCc3cccc(F)c3)cc2n1` [9 (Ex. 9), 7-{2-[3-(3-Fluorophenyl(propylamino)methyl]}quinolin-2-amine Dihydrochloride], the Selectivity n/e was determined as 62 and the Selectivity n/i amounted to 538.

A word on the Ki: it is a measure of affinity in units of concentration, obtained from inhibition or displacement. On to `Nc1ccc2cc(CCNCCCc3cccc(F)c3)ccc2n1` [13 (Ex. 30), 6-{2-[3-(3-Fluorophenyl(propylamino)ethyl]}quinolin-2-amine Dihydrochloride], for which the Ki (read-out: Ki nNOS, purified rat nNOS, Ki calculated from IC50) is 4.37 µM.

`Cl.Cl.Nc1ccc2ccc(CCNCCc3ccc(F)cc3)cc2n1` [14 (Ex. 16), 7-[(4-Fluorophenethylamino)ethyl]quinolin-2-amine Dihydrochloride]: the Selectivity n/i is 280.

On to `Cl.Cl.Nc1ccc2ccc(CCNCCc3ccc(Cl)cc3)cc2n1` [16 (Ex. 18), 7-[(4-Chlorophenethylamino)ethyl]quinolin-2-amine Dihydrochloride], for which the Selectivity n/e is 47 and the Selectivity n/i is 91.
